Data set [1] concerns H. contortus, susceptible (TxPh-2011-S) and MDR (UGA MDR 2020) isolates. Kind of data set: Larval development assay (LDA). The format is cell-based, Haemonchus contortus. The conditions noted are these: for Hill slope: LDA dose-response curve; for anthelmintic activity in LDA: drug-susceptible and MDR isolates.
The test system of data set [2] is HCT-8 cells. Description: WST-1 cytotoxicity assay in HCT-8 cells. The format is cell-based, human. The following applies: 24 h, read-out: Mean IC50 ± SEM, Cytotoxicity. On the procedure: Compounds were tested for cytotoxicity in human ileocecal colorectal adenocarcinoma cells (HCT-8) (ATCC CCL-244; RRID:CVCL_2478) by using the cell proliferation reagent WST-1 (Roche) according to the manufacturer’s protocol. The WST-1 assay is a quantitative colorimetric assay for measurement of metabolically active cells. This assay is based on the reduction of the tetrazolium salt (WST-1) by viable cells. About 5 × 10^4 HCT-8 cells were seeded per well in 96-well plates and grown overnight in 200 μL of RPMI 1640 medium (without phenol red; Gibco) supplemented with 2.5 g/L of glucose, 1 mM sodium pyruvate, 1.5 g/L of sodium bicarbonate, 10% heat-inactivated FBS (Gibco), and 1× antibiotic-antimycotic (Gibco) at 37°C with 5% CO2 in a humidified incubator. Upon reaching 80 to 90% confluence, cells were treated with various concentrations of the test compounds for 24 h. Control wells received equivalent volumes of DMSO used in the reconstituted compounds. After 24 h of culture, 10 μL of the WST-1 reagent was added to each well, and the plates were incubated in the dark for 1 h at 37°C with 5% CO2. The plates were well agitated, and 150 μL of the medium from each well was transferred to a new clear flat-bottomed black 96-well plate (Corning). The absorbance was read at a test wavelength of 440 nm and a reference wavelength of 690 nm using a multimode microplate reader (Spectra Max iD3; Molecular Devices, USA). All of the reactions were prepared in triplicate. The dose-response curves were generated by nonlinear regression analysis with GraphPad PRISM software using control-normalized data to determine the half-maximal cytotoxicity (IC50) concentrations.
A general note: Formazan colour is commonly taken as a measure of viable cells.

In general, IC50 refers to the concentration that gives 50% inhibition. By Hill slope is commonly meant a measure of the steepness of the concentration-response curve. `CO[C@@]12[C@H](COC(N)=O)C3=C(C(=O)C(C)=C(N)C3=O)N1C[C@H]1[C@@H]2N1C` (stereo partly shown) [NSC56410]: the IC50 in data set [1] (Haemonchus contortus, read-out: Anthelmintic IC50 by LDA (95% confidence interval)) was 0.8 µM. Besides, in data set [1] (LDA IC50), the “fold higher potency than NSC133100” value was ~ 5 fold, the “fold higher potency than NSC145612” value is approximately 39 fold and the “fold higher potency than NSC177383” value is given as approximately 6 fold. For the same molecule, in data set [1], the Hill slope was determined as 0.45 and the “anthelmintic activity in LDA” value is recorded as “activity in the lower micromolar range”.
For the molecule `COc1ccc(-c2c(C)c(C(=O)O)nc(-c3ccc4c(O)c(OC)c5c(c4n3)=NC(C)(C)N=5)c2N)c(O)c1OC` [NSC62709], the half-inhibitory concentration (IC50) in data set [2] worked out at 299 ± 6.27 µM.
On to `COc1cc(C)c2c(c1C=O)Oc1c(c(C)c(O)c3c1C(O)OC3=O)OC2=O` (stereo not shown) [NSC87511], for which the IC50 in data set [2] is 172 ± 8.68 µM.
For `CO[C@H]1/C=C/O[C@@]2(C)Oc3c(C)c(O)c4c(O)c(cc(O)c4c3C2=O)NC(=O)/C(C)=C\C=C\[C@H](C)[C@H](O)[C@@H](C)[C@@H](O)[C@@H](C)[C@H](OC(C)=O)[C@@H]1C` [NSC133100], in data set [1] (LDA IC50), the “fold higher potency than NSC145612” value is ~ 7 fold. Further, in data set [1], the Hill slope is 0.60 and the “anthelmintic activity in LDA” value is “activity in the lower micromolar range”. Further, the IC50 in data set [2] is 102 ± 16.6 µM.
`CO[C@@H]1/C=C\O[C@]2(C)Oc3c(C)c(O)c4c(O)c(c(CN(C)C)c(O)c4c3C2=O)NC(=O)/C(C)=C\C=C[C@@H](C)[C@@H](O)[C@H](C)[C@@H](O)[C@H](C)[C@H](OC(C)=O)[C@@H]1C` [NSC145612]: in data set [1], the Hill slope is 0.79 and the “anthelmintic activity in LDA” value is “activity in the lower micromolar range”. For the same molecule, the IC50 in data set [2] was determined as 302 ± 9.33 µM.
As for `CO[C@@H]1/C=C/O[C@@]2(C)Oc3c(C)c(O)c4c(c3C2=O)C(=N[C@@H]2CC[C@@H](O)O[C@H]2C)C=C(NC(=O)/C(C)=C\C(=O)[C@@H]2C[C@@H]2[C@H](O)[C@@H](C)[C@@H](O)[C@@H](C)[C@H](OC(C)=O)[C@@H]1C)C4=O` [NSC177383], the “fold higher potency than NSC145612” value in data set [1] (LDA IC50) is ~ 7 fold. In data set [1], the Hill slope is 1.23 and the “anthelmintic activity in LDA” value is given as “activity in the lower micromolar range”. Besides, the IC50 in data set [2] stood at 85.5 ± 2.77 µM.

The record behind these values is PMC10269165 (Antimicrobial Agents and Chemotherapy, 2023).
